Assays:
CSF-1R = CSF-1R (Homo sapiens (Human), UniProt P07333); test: In vitro inhibitory activity on CSF-1R kinase (33P-ATP filter-binding, Reaction Biology Corporation); type: biochemical; details: CSF-1R 2.5 nM, filter-binding method
Protocol: Experimental Example 1: In Vitro Inhibitory Activity of the Compounds of the Present Invention on CSF-1R in Terms of Enzymology The compounds of the present invention for experiments were made in house, and their structural formulas were shown in the preparation examples of each compound. The experimental tests were conducted at Reaction Biology Corporation in the United States, and the experimental results were provided by the company. Experimental Reagents: Necessary reaction buffer: 20 mM hydroxyethylpiperazine ethanesulfonic acid (pH 7.5), 10 mM magnesium chloride, 1 mM EGTA, 0.02% Brij35, 0.02 mg/mL bovine serum albumin, 0.1 mM Na3VO4, 2 mM DTT, 1% DMSO. The necessary cofactors were added separately to the CSF-1R kinase reaction. Enzyme: the concentration of CSF-1R was 2.5 nM Treatment with the Compounds: The compound to be tested was formulated with 100% DMSO into a solution with a specific concentration, and serial dilution was performed with DMSO through the intelligent pipetting assistant Integra Viaflo Assist. Experimental Procedure: […] All necessary cofactors were added to the above reaction buffer; CSF-1R kinase was added to the above matrix solution and shaken gently; Using acoustic technology (Echo550; nanoliter range), a solution of the compound in DMSO was added to the above kinase reaction mixture, and the reaction solution was incubated at room temperature for 20 minutes; ^33P-ATP (specific activity, 10 μCi/μl) was added to the above kinase reaction mixture to initiate the reaction; The reaction solution was incubated at room temperature for 2 hours; The kinase activity was detected by the filter-binding method; The kinase activity was the ratio of the remaining kinase in the test sample to the vehicle (DMSO) group. IC50 values and profiles were obtained using Prism (GraphPad software).

[1] = Pharmacokinetic study after intravenous injection and oral administration (plasma, LC-MS/MS); type: in vivo, rats; details: for AUC(0-t) / C0 / Vd / clearance / half-life / Cmax: male, SD, rat, plasma
Text: Example 2 Pharmacokinetic Study on Mice and Rats (PK)
The purpose of this experiment was to study the pharmacokinetics of the test article in the plasma of male C57BL/6J mice and SD rats after intravenous injection and oral administration.
The animals were randomly divided into two groups with 2 males in each group. The compounds were formulated into prescribed preparations. Preparations for intravenous injection were clear solutions, and oral preparations could be clear or homogeneous suspensions.
Whole blood samples were collected from the jugular vein puncture or saphenous vein of the animals 5 minutes, 15 minutes, 30 minutes, 1 hour, 2 hours, 4 hours, 6 hours, and 8 hours after administration. The whole blood sample was added to the centrifuge tube containing anticoagulant, and centrifuged at 3000 g for 15 minutes at 4° C. The supernatant of plasma was taken, frozen quickly on dry ice, and then stored in a −70° C.±10° C. refrigerator until LC-MS/MS analysis.
WinNonlin™ Version 6.3.0 (Pharsight, Mountain View, Calif.) pharmacokinetic software was used to process the plasma drug concentration data of the compounds with a non-compartmental model. The peak concentration (Cmax), peak time (Tmax) and quantifiable end time were obtained directly from the blood drug concentration-time profile.
The following pharmacokinetic parameters were calculated using the log-linear trapezoid method: Plasma clearance rate (CL), volume of distribution (Vd), elimination phase half-life (T1/2), average residence time of drug in the body from 0 to the end time point (MRT0-last), average residence time of the drug in the body from 0 to infinite time (MRT0-inf), area under the time-plasma concentration curve from 0 to the end time point (AUC0-last), area under the time-plasma concentration curve from 0 to infinite time (AUC0-inf) and bioavailability (F), C0 was the initial concentration.

CSF-1R, sequence (P07333 20-972): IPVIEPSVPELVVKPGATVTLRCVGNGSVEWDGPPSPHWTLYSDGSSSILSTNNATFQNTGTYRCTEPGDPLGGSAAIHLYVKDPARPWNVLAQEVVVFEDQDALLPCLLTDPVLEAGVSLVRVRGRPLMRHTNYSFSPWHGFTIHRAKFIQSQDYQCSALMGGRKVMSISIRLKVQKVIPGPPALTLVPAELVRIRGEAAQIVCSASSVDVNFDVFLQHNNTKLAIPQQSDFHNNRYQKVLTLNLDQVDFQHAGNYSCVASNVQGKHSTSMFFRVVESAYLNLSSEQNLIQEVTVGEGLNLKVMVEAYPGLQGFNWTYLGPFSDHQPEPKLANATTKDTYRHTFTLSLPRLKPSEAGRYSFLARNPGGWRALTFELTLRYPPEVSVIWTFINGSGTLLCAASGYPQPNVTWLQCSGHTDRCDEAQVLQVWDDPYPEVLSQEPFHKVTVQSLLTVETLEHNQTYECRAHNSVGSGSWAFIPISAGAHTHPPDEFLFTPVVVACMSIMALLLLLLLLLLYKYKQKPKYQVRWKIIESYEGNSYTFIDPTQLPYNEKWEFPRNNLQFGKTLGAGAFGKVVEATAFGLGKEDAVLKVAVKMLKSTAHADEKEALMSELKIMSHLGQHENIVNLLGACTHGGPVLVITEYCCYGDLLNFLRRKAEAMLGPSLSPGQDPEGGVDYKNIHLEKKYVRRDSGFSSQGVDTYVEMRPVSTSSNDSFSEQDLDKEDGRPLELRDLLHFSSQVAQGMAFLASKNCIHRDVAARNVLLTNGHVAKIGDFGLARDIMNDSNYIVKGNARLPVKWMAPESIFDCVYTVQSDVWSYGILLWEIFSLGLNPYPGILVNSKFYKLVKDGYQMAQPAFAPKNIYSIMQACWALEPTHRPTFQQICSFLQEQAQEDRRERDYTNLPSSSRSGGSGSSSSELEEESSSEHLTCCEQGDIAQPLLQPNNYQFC

IC50 (CSF-1R) [nM]	Compound	other results
4.71	CNc1ccc(-c2cnc(Nc3ccc(C4CC4)nn3)cc2C)c2c1C(=O)NC2 [Compound 11]	–
2.49	CNc1ccc(-c2cnc(Nc3cnc(OC4CC4)nc3)cc2C)c2c1C(=O)NC2 [Compound 16]	–
3.06	Cc1cc(NCc2ccc(C(F)(F)F)nc2)ncc1-c1ccc(N(C)C)c2c1CNC2=O [Compound 1]	–
12.1	CNc1ccc(-c2cnc(Nc3ccn(C4CC4)c(=O)c3)cc2C)c2c1C(=O)NC2 [Compound 20]	–
2.55	CNc1ccc(-c2cnc(Nc3cnc(OC4CC4)cn3)cc2C)c2c1C(=O)NC2 [Compound 19]	–
1.41	CNc1ccc(-c2cnc(Nc3ccc(N(C)C)nc3)cc2C)c2c1C(=O)NC2 [Compound 9]	–
3.43	CNc1ccc(-c2cnc(Nc3ccc(OC4CC4)nn3)cc2C)c2c1C(=O)NC2 [Compound 18]	–
1.27	CNc1ccc(-c2cnc(NCc3ccc(C(F)(F)F)nc3)cc2C)c2c1C(=O)NC2 [Compound 4]	–
–	COc1ccc(-c2ccc(NC(=O)Nc3cccc(C)c3)cc2)c2c1C(=O)NC2 [Control compound, reference compound]	F ([1]; PO (10 mpk)): 3.92%; AUC(0-t) ([1]; 1 mg/kg, IV (1 mpk)): 0.918 µM·h; C0 ([1]; 1 mg/kg, IV (1 mpk)): 3.72 µM; Vd ([1]; 1 mg/kg, IV (1 mpk)): 1.48 L/kg; clearance ([1]; 1 mg/kg, IV (1 mpk)): 46.7 mL/min/kg; half-life ([1]; 1 mg/kg, IV (1 mpk)): 0.92 h; AUC(0-t) ([1]; 10 mg/kg, PO (10 mpk)): 0.333 µM·h; Cmax ([1]; 10 mg/kg, PO (10 mpk)): 0.104 µM
1.89	CNc1ccc(-c2cnc(Nc3cnc(C4CC4)cn3)cc2C)c2c1C(=O)NC2 [Compound 12]	–
2.61	CNc1ccc(-c2cnc(Nc3cnc(C4CC4)nc3)cc2C)c2c1C(=O)NC2 [Compound 10]	F ([1]; PO (10 mpk)): 106%; AUC(0-t) ([1]; 1 mg/kg, IV (1 mpk)): 18.7 µM·h; C0 ([1]; 1 mg/kg, IV (1 mpk)): 6.29 µM; Vd ([1]; 1 mg/kg, IV (1 mpk)): 0.495 L/kg; clearance ([1]; 1 mg/kg, IV (1 mpk)): 2.31 mL/min/kg; half-life ([1]; 1 mg/kg, IV (1 mpk)): 2.53 h; AUC(0-t) ([1]; 10 mg/kg, PO (10 mpk)): 198 µM·h; Cmax ([1]; 10 mg/kg, PO (10 mpk)): 33 µM
5.01	CNc1ccc(-c2cnc(Nc3ccc(C4(C#N)CC4)nc3)cc2C)c2c1C(=O)NC2 [Compound 6]	–
2.5	CNc1ccc(-c2cnc(Nc3ccc(C4CC4)cn3)cc2C)c2c1C(=O)NC2 [Compound 14]	–
24.5	CC(=O)Nc1ccc(-c2cnc(NCc3ccc(C(F)(F)F)nc3)cc2C)c2c1C(=O)NC2 [Compound 3]	–
1.55	Cc1cc(NCc2ccc(C(F)(F)F)nc2)ncc1-c1ccc(N)c2c1CNC2=O [Compound 2]	–
3.78	CNc1ccc(-c2cnc(Nc3ncc(C4CC4)cn3)cc2C)c2c1C(=O)NC2 [Compound 13]	–
1.68	CNc1ccc(-c2cnc(Nc3ccc(OC4CC4)nc3)cc2C)c2c1C(=O)NC2 [Compound 5]	–
0.82	CNc1ccc(-c2cnc(Nc3ccc(C4CC4)nc3)cc2C)c2c1C(=O)NC2 [Compound 15]	–
1.87	CCOc1ccc(Nc2cc(C)c(-c3ccc(NC)c4c3CNC4=O)cn2)cn1 [Compound 7]	–
4.15	CNc1ccc(-c2cnc(Nc3ccc(OC4CC4)cn3)cc2C)c2c1C(=O)NC2 [Compound 17]	–
4.98	CNc1ccc(-c2cnc(Nc3ccc(OC(F)F)nc3)cc2C)c2c1C(=O)NC2 [Compound 8]	–

Source: patent publication US11384065B2, “Heterocyclic compound as CSF-1R inhibitor and use thereof” (MEDSHINE DISCOVERY INC., priority 2018, dated 2022)
